These results are taken from ChEMBL document CHEMBL4371047, “Effect of α-Methoxy Substitution on the Anti-HIV Activity of Dihydropyrimidin-4(3 H)-ones” (J Med Chem, 2019).

A short description of data set [1]: Cytotoxicity against human MT4 cells assessed as reduction in cell viability after 5 days by MTT assay. Type of data set: cell-based.
Data set [2] has as its system Human immunodeficiency virus 1. Put plainly: Antiviral activity against HIV-1 IRLL98 harboring reverse transcriptase M41L, D67N, Y181C, M184V, R211K, and T215Y mutants infected in human MT4 cells assessed as inhibition of virus-induced cytopathic effect after 5 days by MTT assay. Type of data set: functional, organism-based. To be noted: Human immunodeficiency virus 1, IRLL98, MT4, 120 h.

Data set [3] has as its system Human immunodeficiency virus 1. Put plainly: Antiviral activity against HIV-1 harboring reverse transcriptase K103N mutant infected in human MT4 cells assessed as inhibition of virus-induced cytopathic effect after 5 days by MTT assay. Type of data set: functional, organism-based. To be noted: Human immunodeficiency virus 1, MT4, 120 h.
For data set [4], the system named is Human immunodeficiency virus 1. Kind of data set: Antiviral activity against HIV 1 harboring reverse transcriptase Y181C mutant infected in human MT4 cells assessed as inhibition of virus-induced cytopathic effect after 5 days by MTT assay. Type of data set: functional, organism-based. To be noted: Human immunodeficiency virus 1, MT4, 120 h.
Data set [5] relates to Human immunodeficiency virus 1. Kind of data set: Antiviral activity against HIV-1 harboring reverse transcriptase K103N/Y181C double mutant infected in human MT4 cells assessed as inhibition of virus-induced cytopathic effect after 5 days by MTT assay. Type of data set: functional, organism-based. To be noted: Human immunodeficiency virus 1, MT4, 120 h.
Data set [6] concerns Human immunodeficiency virus 1. Kind of data set: Antiviral activity against wild type HIV 1 NL4-3 infected in human MT4 cells assessed as inhibition of virus-induced cytopathic effect after 5 days by MTT assay. The class given is functional, organism-based. To be noted: Human immunodeficiency virus 1, NL4-3, MT4, 120 h.
Data set [7] in a line: Therapeutic index, ratio of CC50 for human MT4 cells to EC50 for HIV-1 NL4-3 infected in human MT4 cells. Type of data set: toxicity, cell-based. To be noted: read-out: Ratio CC50/EC50.
Data set [8] relates to Human immunodeficiency virus 1. Put plainly: Resistance index, ratio of EC50 for HIV-1 harboring reverse transcriptase K103N mutant to EC50 for wild type HIV-1 NL4-3. Type of data set: functional.
Data set [9] relates to Human immunodeficiency virus 1. Put plainly: Resistance index, ratio of EC50 for HIV-1 harboring reverse transcriptase Y188L mutant to EC50 for wild type HIV-1 NL4-3. The class given is functional.
Data set [10] has as its target Human immunodeficiency virus type 1 reverse transcriptase (Human immunodeficiency virus 1) (UniProt Q72547).
Description: Inhibition of recombinant wild type HIV-1 His-tagged reverse transcriptase p66/p51 expressed in Escherichia coli assessed as reduction in [3H]dTTP incorporation using poly(rA)/oligo(dT) as template/primer after 20 mins by scintillation counting analysis
In data set [11] the test system is Human immunodeficiency virus 1. Kind of data set: Resistance index, ratio of EC50 for HIV-1 harboring reverse transcriptase K103N/Y181C double mutant to EC50 for wild type HIV-1 NL4-3. Type of data set: functional.
The subject of data set [12] is Human immunodeficiency virus type 1 reverse transcriptase (Human immunodeficiency virus 1), Q72547 [K103N].
Description: Inhibition of recombinant HIV-1 His-tagged reverse transcriptase p66/p51 K103N mutant expressed in Escherichia coli assessed as reduction in [3H]dTTP incorporation using poly(rA)/oligo(dT) as template/primer after 20 mins by scintillation counting analysis
For data set [13], the system named is Human immunodeficiency virus 1. Put plainly: Resistance index, ratio of EC50 for HIV-1 harboring reverse transcriptase Y181C mutant to EC50 for wild type HIV-1 NL4-3. Type of data set: functional.
The subject of data set [14] is Human immunodeficiency virus type 1 reverse transcriptase (Human immunodeficiency virus 1), Q72547 [Y181I].
Data set [15] has as its system Human immunodeficiency virus 1. Kind of data set: Resistance index, ratio of ID50 for recombinant HIV-1 His-tagged reverse transcriptase p66/p51 L100I mutant to ID50 for recombinant wild type HIV-1 reverse transcriptase His-tagged p66/p51.
Data set [16] concerns Human immunodeficiency virus type 1 reverse transcriptase (Human immunodeficiency virus 1), Q72547 [L100I].
Data set [17] has as its system Human immunodeficiency virus 1. Kind of data set: Resistance index, ratio of ID50 for recombinant HIV-1 His-tagged reverse transcriptase p66/p51 Y181I mutant to ID50 for recombinant wild type HIV-1 reverse transcriptase His-tagged p66/p51.
For data set [18], the system named is Human immunodeficiency virus 1. Kind of data set: Antiviral activity against HIV-1 harboring reverse transcriptase Y188L mutant infected in human MT4 cells assessed as inhibition of virus-induced cytopathic effect after 5 days by MTT assay. Type of data set: functional, organism-based. To be noted: Human immunodeficiency virus 1, MT4, 120 h.
Data set [19] relates to Human immunodeficiency virus 1. Kind of data set: Resistance index, ratio of EC50 for HIV-1 IRLL98 harboring reverse transcriptase M41L, D67N, Y181C, M184V, R211K, and T215Y mutants to EC50 for wild type HIV-1 NL4-3. The class given is functional.
The test system of data set [20] is Human immunodeficiency virus 1. Kind of data set: Resistance index, ratio of ID50 for recombinant HIV-1 His-tagged reverse transcriptase p66/p51 K103N mutant to ID50 for recombinant wild type HIV-1 reverse transcriptase His-tagged p66/p51.

As for `O=C1Nc2ccc(Cl)cc2[C@@](C#CC2CC2)(C(F)(F)F)O1` [EFAVIRENZ], in data set [1], the CC50 at 120 h was more than 3000 nM. Also, the EC50 in data set [2] is 630 nM; in data set [3], 390 nM; in [4], 44 nM; in [5], 400 nM.

Consider `Cc1cc(C#N)cc(C)c1Oc1nc(Nc2ccc(C#N)cc2)nc(N)c1Br` [ETRAVIRINE], for which the half-maximal cytotoxic concentration (CC50) at 120 h in data set [1] was found to be 3500 nM. In addition, the EC50 in [6] was determined as 0.5 nM; in data set [3], 2 nM; in data set [4], 9 nM. Also, in data set [7], the selectivity ratio came out at 7000. Besides, the “Ratio EC50” value in data set [8] was determined as 4; in data set [9], 40; in data set [11] it was 38; in [13], 18. In addition, the results for the ID50 in [10] and in data set [12] were 6 nM and 85 nM, respectively.

`COC(c1nc(SC(C)C)[nH]c(=O)c1C)c1c(F)cccc1F` (stereo unspecified): the CC50 at 120 h in data set [1] is more than 25000 nM. For the same compound, the ID50 was found to be 9100 nM in data set [14], 570 nM in [16], 8 nM in data set [10] and 130 nM in [12]. The EC50 in data set [6] stood at 17 nM; in [2], 520 nM; in data set [3], 1100 nM; in data set [18], 2900 nM; in [4] it was 560 nM. Further, the Ratio in data set [15] is 71; in data set [17], 1140; in data set [20], 16. Also, the selectivity ratio in data set [7] is more than 1470. The “Ratio EC50” value is reported as 65 in [8], 171 in [9], 31 in [19] and 33 in data set [13].

As for `Cc1ccnc2c1NC(=O)c1cccnc1N2C1CC1` [NEVIRAPINE], the CC50 at 120 h in [1] is more than 7000 nM. The ID50 in [14] is 33000 to 35000 nM; in data set [16], 8500 to 9000 nM. The EC50 in [18] and in data set [5] was more than 7000 nM in each case.

Turning to `COC(c1nc(NC(C)C)[nH]c(=O)c1C)c1c(F)cccc1F` (stereo unspecified), the CC50 at 120 h in data set [1] was more than 81400 nM. Also, the ID50 in data set [14] was found to be 1900 nM; in data set [16], 1100 nM; in [10], 57 nM; in [12], 620 nM. In addition, the EC50 in [6] amounted to 14 nM; in data set [2] it was 70 nM; in data set [3], 230 nM; in [18], 6600 nM; in data set [4], 140 nM. In addition, the figures for the Ratio in data set [15], in [17] and in data set [20] were 19, 33 and 11, respectively. Further, the selectivity ratio in data set [7] was more than 5810. Besides, the “Ratio EC50” value in data set [8] turned out to be 16; in [9] it was 471; in data set [19], 5; in data set [13], 10.

On to `CCCN(C)c1nc(C(C)c2c(F)cccc2F)c(C)c(=O)[nH]1` (stereo unspecified), for which the 50% cytotoxic concentration (CC50) at 120 h in data set [1] is more than 78000 nM. Besides, the EC50 in [6] stood at 1.9 nM; in data set [2], 7 nM; in data set [3], 16 nM; in [18], 49 nM; in [4], 17 nM. For the same compound, the Ratio was found to be 6 in [15], 40 in data set [17] and 6 in [20]. For the same compound, the selectivity ratio in data set [7] was more than 41000. Also, the “Ratio EC50” value in [8] is 9; in [9], 26; in data set [19], 4; in [13], 9.

`Cc1c(C(C)c2c(F)cccc2F)nc(NC(C)C)[nH]c1=O` (stereo unspecified): in data set [1], the CC50 at 120 h stood at 200000 nM. For the same compound, the ID50 in data set [14] was determined as 3520 nM; in data set [16] it was 250 nM; in data set [10], 35 nM; in data set [12] it was 400 nM. Besides, the 50% effective concentration (EC50) in data set [6] is 20 nM; in [2] it was 150 nM; in [3], 890 nM; in data set [18], more than 10000 nM; in data set [4] it was 350 nM. The values for the Ratio in data set [15], in [17] and in data set [20] were 7, 101 and 11, respectively. For the same compound, in [7], the selectivity ratio was 10000. The “Ratio EC50” value in data set [8] was found to be 44; in [19], 7; in [13], 17.

As for `Cc1c(C(C)c2c(F)cccc2Cl)nc(SC(C)C)[nH]c1=O` (stereo unspecified), the CC50 at 120 h in data set [1] was more than 15000 nM. Also, the selectivity ratio in [7] is more than 375000. Also, the figures for the EC50 in [2] and in [5] were 75 nM and 270 nM, respectively. Also, the “Ratio EC50” value in data set [11] is on record as 6750; in data set [19], 1875.

Consider `CCC(C)Sc1nc(C(C)c2c(F)cccc2Cl)c(C)c(=O)[nH]1` (stereo unspecified), for which, in data set [1], the CC50 at 120 h was more than 1500 nM. Further, in [7], the selectivity ratio is more than 5000. Moreover, the EC50 in [2] amounted to 95 nM; in [5] it was 410 nM. The entries for the “Ratio EC50” value in data set [11] and in [19] were 1367 and 317, respectively.

`CCCNc1nc(C(OC)c2c(F)cccc2F)c(C)c(=O)[nH]1` (stereo unspecified): in data set [1], the CC50 at 120 h was found to be 81400 nM. Further, the ID50 in [14] came out at 1700 nM; in data set [16], 980 nM; in data set [10], 40 nM; in [12] it was 220 nM. Also, the EC50 in data set [6] was 5 nM; in data set [2], 16 nM; in [3] it was 32 nM; in [18], 3500 nM; in data set [4], 98 nM. In addition, the figures for the Ratio in [15], in data set [17] and in data set [20] were 24, 42 and 5, respectively. In data set [7], the selectivity ratio was determined as 16300. The “Ratio EC50” value came to 6 in data set [8], 700 in data set [9], 3 in data set [19] and 20 in [13].

For `COC(c1nc(SC2CCCC2)[nH]c(=O)c1C)c1c(F)cccc1Cl` (stereo unspecified), the CC50 at 120 h in data set [1] is 36800 nM. Also, the ID50 in data set [14] was determined as 3800 nM; in data set [16], 2300 nM; in [10], 7 nM; in [12], 150 nM. Moreover, the EC50 in data set [6] was determined as 0.7 nM; in data set [2], 12 nM; in data set [3], 70 nM; in data set [18], 860 nM; in data set [4], 160 nM. The Ratio in [15] is 329; in [17] it was 543; in data set [20], 21. Also, the selectivity ratio in data set [7] worked out at 52600. Besides, the “Ratio EC50” value in [8] was 100; in data set [9] it was 1229; in data set [19] it was 17; in data set [13] it was 229.

As to `COC(c1nc(SC2CCCC2)[nH]c(=O)c1C)c1c(F)cccc1F` (stereo unspecified), in [1], the CC50 at 120 h was found to be 34300 nM. Further, the ID50 in data set [14] amounted to 570 nM; in [16], 910 nM; in [10], 14 nM; in data set [12], 260 nM. The EC50 in data set [6] was 29 nM; in data set [2] it was 840 nM; in data set [3], 2800 nM; in data set [18] it was 3200 nM; in data set [4] it was 2700 nM. In addition, the Ratio was found to be 65 in [15], 41 in data set [17] and 19 in data set [20]. In addition, the “Ratio EC50” value in data set [8] is given as 97; in [9], 110; in data set [19] it was 29; in data set [13] it was 93.

Turning to `CCC(C)Sc1nc(C(OC)c2c(F)cccc2F)c(C)c(=O)[nH]1` (stereo unspecified), in data set [1], the 50% cytotoxic concentration (CC50) at 120 h came out at 27200 nM. For the same compound, the ID50 in [14] was 5400 nM; in data set [16], 280 nM; in data set [10], 3 nM; in data set [12], 1500 nM. Also, the EC50 in data set [6] was determined as 9 nM; in [2], 240 nM; in data set [3] it was 1600 nM; in data set [18], 2800 nM; in data set [4], 370 nM. Moreover, the values for the Ratio in data set [15], in data set [17] and in [20] were 93, 1800 and 500, respectively. Further, in data set [7], the selectivity ratio stood at 3020. In addition, the “Ratio EC50” value in data set [8] turned out to be 178; in [9], 311; in [19], 27; in data set [13], 41.
